In experiment [1] the test system is NLK dimerization and p53. The experiment is described as follows: YFP-/CFP-NLK FRET (NLK dimerization) and p53 flow cytometry in cord blood CD34+ HSPCs. The class given is cell-based, human. The following applies: d. The text has this: Ribosome-insufficiency induces stabilization of p53 protein and contributes to DBA pathogenesis[27],[57]–[59]. […] To further examine the role of p53 in NLK activation in our model and DBA patient samples, we utilized Nutlin-3. Nutlin-3 inhibits the E3 ubiquitin ligase MDM2 binding of p53 and subsequently stabilizes p53 from ubiquitin-dependent degradation. NLK dimerizes upon activation[46] and the detection of FRET from dimerized YFP- and CFP-NLK pairs correlates with NLK activity in RPS19-insufficiency (Fig. 3d). […] We gated p53 expression into p53^low in which 6.6% of cells activate NLK, and p53^hi where 91.9% of cells activate NLK (Fig. 6b.ii). RPS19-insufficiency increased the p53^hi population from 8.1 to 34.1%, corresponding to an increase from 9.0 to 36.1% of cells with elevated NLK-dimerization (Fig. 6b.iii).
Fig. 6 NLK is activated in early erythroid progenitors and requires P53 stabilization in RPS19-insufficiency. a Cord blood CD34^+ progenitors were transduced with lentivirus expressing shRNA against luciferase (shLuc) or RPS19 (shRPS19) co-expressing GFP. Cells were also transduced with or without shRNA against p53 co-expressing mCherry. […] Cells were stained for p53 and both p53 and FRET was measured by flow cytometry. […] Bone marrow mononuclear cells from three DBA patients were pooled and analyzed simultaneously (iii). d Documentation of the percentage of cells with dimerizing NLK in p53^hi and p53^low is tabulated and can be compared with NLK in vitro kinase activity. e—green Samples were gated to include non-erythroid CD71^-CD235^- populations, MEP- and BFU-E-enriched CD71^lowCD235^- populations, CFU-E-enriched CD71^hiCD235^- populations and proerythroblast and intermediate erythroblast CD71^hiCD235^+ populations. […]

The test system of experiment [2] is NLK dimerization and p53. The experiment is described as follows: YFP-/CFP-NLK FRET (NLK dimerization) and p53 flow cytometry in healthy bone marrow mononuclear cells. Type of experiment: cell-based, human. The following applies: Nutlin-3 24 h, control 6.6%, Fig. 6c, d. The text has this:
(§1) Bars represent means ± SD with individual data points overlaid. n = 3 independent experiments performed in triplicate. […] Source data are provided as a Source Data file.
(A flow cytometer gives signals particle by particle.)

For experiment [3], the system named is NLK phosphorylation at Thr298. Put plainly: SDS-PAGE / pThr298-NLK Western blot after NLK in vitro kinase reaction (rebuttal Experiment 6). Type of experiment: biochemical, human. Conditions: Day 7. On the procedure:
Experiment 5. Activated p38 and NLK have different kinase specificity for NLK, c- […]
Immunopurification of activated NLK and p38 were incubated in the presence of ATP, Mg2+ and immobilized, dephosphorylated substrates. After 30 mins, the degree of substrate phosphorylation was determined. Of the four substrates examined, NL K wa s the most phosphorylated substrate detected wit h p38. The extent of phosphorylation of the other substrates by p38 was normalized to NLK as substrate , i.e. NLK-100%, c-Myb -79%, Raptor-33%, ST AT 3 -18%. Raptor was the most phosphorylated substrate of NLK. Consequently, phosphorylation of other substrates by NLK is expressed as a percentage of NLK-mediated Raptor phosphorylation, i.e . NLK-37%, c-M yb -80%, […]
Conclusion: W hile p38 and NLK can phosphorylate NLK, c-Myb and Raptor in vitro, we observe different specificities between immunoprecipitated NLK and p38. This would […]
1) W estern blotting analysis or RadioIsotope ivk assay showing increase of NLK autophosphorylation activity (Graph data is not suitable. SDS-PAGE gel data with molecular maker is suitable to show the activity of NLK itself)
Response: We performed the W estern blot analysis as requested. Purified NLK incubated with immunopurified NLK from treated samples, were separated by SDS-PAGE and immunoblotted with pThr298- NLK antibody. […]
(In western blotting, separated proteins are transferred to a membrane and probed.)

Experiment [4] relates to p38 phosphorylation. Put plainly: p38 phosphorylation in treated cells (Western blot of pp38). Type of experiment: cell-based, human. The following applies: 100nM; rebuttal Experiment 12.
Experiment [5] relates to RPS19-insufficient cord blood CD34+ HSPCs. Put plainly: In vitro differentiation of cord blood CD34+ HSPCs transduced with shRNA against RPS19 (cell count and flow cytometry). The class given is cell-based, human. The following applies: RPS19-insufficient erythroblasts treated at 100nM; rebuttal Experiment 12. On the procedure: Cells were plated at 2000 cell per well in 96-well plates in the presence or absence of doxycycline. Relative amounts of live cells were quantified by luciferase-based Cell titer-Glo® assay. b TGFβR1 inhibitors were assessed for their ability to increase cell expansion in RPS19-insuffiency. As a control, vehicle alone (no doxycycline) is represented at the far left while all other samples were treated with doxycycline to induce RPS19-insufficiency. c Kit^+ erythroid progenitors were grown in the absence of doxycycline and in the presence of 10 µM of indicated compound. In addition, cells were treated with 5 ng/ml of TGFβ1 for 5 days before being subjected to Cell titer-Glo® assay. d Differentiating cord blood CD34^+ progenitors were transduced with shRNA against luciferase or RPS19 and treated with inhibitors at working concentrations for TGFβ inhibition every three days. […] Cells were counted and CD235^+ erythroid (i and iii) and CD11b^+ myeloid cell (ii and iv) percentages were determined by flow cytometry. The number of erythroid or myeloid cells is expressed as a percentage of the number of that lineage with no cytokine or drug treatment. Bars represent means ± SD with individual data points overlaid. n = 3 independent experiments performed in triplicate. Statistics: two-tailed Student’s t test, significant *p < 0.05. Also see Supplementary Fig. 1. Erythroid expansion is depicted in red while myeloid is in purple. Source data are provided as a Source Data file.
Cells were counted and assessed for cell surface expression of CD235. b Lin-Kit^+ hematopoietic progenitors were obtained from three mouse embryos expressing tetracycline-inducible shRNA against RPS19 at day E14.5 or three untreated mice, and thee mature RPL11^+/+ or three mature RPL11^+/lox mice treated with tamoxifen for eight weeks. […] Values were expressed as a percentage relative to untreated controls. c, d Intracellular phosphorylation of NLK at Thr298 was determined by capillary electrophoresis using the Peggy Sue™ Automated Western blotting platform. After lysis, 4 µg of protein from the CD235^+ population was probed against pThr298-NLK and normalized to GAPDH. […] After counting the total cell population, the ratio of CD235^+ erythroblasts was determined by flow cytometry and number of CD235^+ erythroblasts calculated. This was expressed as a percentage of the average number of erythroid cells present in untreated healthy controls. f NLK phosphorylation was assessed by capillary electrophoresis as above. Bars represent means ± SD with individual data points overlaid. […] Statistics: two-tailed Student’s t test, significant *p < 0.05. Also see Supplementary Fig. 8. Source data are provided as a Source Data file.
Primary human CD34^+ hematopoietic stem and progenitor cells were purified from cord or peripheral blood (New York Blood Center) or from human fetal liver tissue (Advanced Bioscience Resources and University of California, Los Angeles Center for AIDS Research) by using magnetic-activated cell sorting (Miltenyi Biotec) and were cryopreserved. Upon thawing, cells were cultured in x-Vivo15 media (Lonza) containing 10% fetal bovine serum, fms-related tyrosine kinase 3 (50 ng/ml), […] (50 ng/ml), interleukin-3 (IL-3; 20 ng/ml), interleukin-6 (IL-6; 20 ng/ml), and stem cell factor (50 ng/ml). When applied, TGFβ1 was added at 5 ng/ml. Kp53A1 cells were obtained from Javier Leon and cultured in DMEM supplemented with 10% fetal bovine serum at 37 or 32 °C.

The subject of experiment [6] is c-Myb. The experiment is described as follows: c-Myb expression and phosphorylation in Kp53A1 cells switched to 32 °C (Western blot). The class given is cell-based. The following applies: pretreated 30 min, 37 to 32 °C for 0, 16, 48 h, Fig. 7d. How it is done:
as §1
Inhibitors were added to cells at indicated concentrations with a final DMSO concentration of 0.5%. […] IC50 calculations were obtained using 8–9 concentrations of compound and generated using the IC50 Calculator software by AAT Bioquest®. NLK, p38, or ALK5 for in vitro kinase assays were immunopurified from Kp53A1 cells. NLK activation was induced by incubating cells at 32° for 24-48 h, p38 by stimulating with IL-3, IL-6, SCF, and Epo at the same concentrations used for differentiating erythroid progenitors.

Setting [7] is: 3 days with Nutlin-3, Fig. 6b.ii.

We go through 4 compounds from PMC7334220, “Diamond Blackfan anemia is mediated by hyperactive Nemo-like kinase” (Nature Communications, 2020).

On to `COc1ccc(C2=N[C@@H](c3ccc(Cl)cc3)[C@@H](c3ccc(Cl)cc3)N2C(=O)N2CCNC(=O)C2)c(OC(C)C)c1` [Nutlin-3], for which, in experiment [1] (setting [7]), the “% FREThi in P53hi” value is 91.9% and the “% FREThi in P53low” value is 6.6%. In addition, in experiment [1] (shLuc, 3 days with Nutlin-3, control 9.0%, Fig. 6b), the “% FREThi (cells with NLK dimerization)” value came out at 50.2%. Also, in experiment [2], the “% P53hi” value was 31.7%.
Regarding `CNC(=O)c1ccc(C)c(-n2c(C)cc(OCc3ccc(F)cc3F)c(Br)c2=O)c1` [PH797804], in experiment [3], the “phosphorylation of NLK at Thr298 by NLK immunopurified from treated RPS19-insufficient cells” value was “not suppressed”. For the same compound, the “inhibition of p38” value in experiment [4] is “inhibited”. In experiment [5], the “increase in erythropoiesis in RPS19-insufficiency” value is recorded as “no increase”.
`C[C@@H]1CN(Cc2ccc(F)cc2)[C@@H](C)CN1C(=O)c1cc2c(C(=O)C(=O)N(C)C)cn(C)c2cc1Cl` [SCIO-469]: in experiment [4], the “inhibition of p38” value is reported as “inhibited”. Besides, the “increase in erythropoiesis in RPS19-insufficiency” value in experiment [5] was “no increase”.
For the compound `CC(=O)N[C@@H](CSC(=O)[C@]1([C@@H](O)C(C)C)NC(=O)[C@H](C)[C@@H]1O)C(=O)O` [lactacystin], in experiment [6], the “expression and phosphorylation of c-Myb after NLK activation” value is “sustained out to 48 h”.
